Consider twelve molecules from ChEMBL document CHEMBL1127971, “Novel conformationally constrained HIV-1 protease inhibitors: rational design, enzyme inhibition, and X-ray structure of an enzyme-inhibtor complex” (Bioorg Med Chem Lett, 1994).

Bounds are passed on as bounds.

The assay addresses Human immunodeficiency virus type 1 protease (Human immunodeficiency virus 1, UniProt Q72874). Nature of the assay: Inhibition of human immunodeficiency virus type 1 (HIV-1) protease.
Broadly, the IC50 is the midpoint of a concentration-inhibition curve. With `CC(C)[C@H](NC(=O)OCc1ccccc1)C(=O)N[C@@H](Cc1ccccc1)[C@]1(O)CCN([C@@H](Cc2ccccc2)C(=O)N[C@H]2c3ccccc3C[C@H]2O)C1`, the half-inhibitory concentration (IC50) is 0.22 µM.

As for `CC(C)(C)NC(=O)[C@H](CC1CCCCC1)N1CC[C@@](O)([C@H](Cc2ccccc2)NC(=O)OC(C)(C)C)C1`, the IC50 worked out at 37 µM. This IC50 is about 170-fold higher than that of the molecule before.

In turn, `CC(C)(C)OC(=O)N[C@@H](Cc1ccccc1)[C@]1(O)CCCN([C@@H](Cc2ccccc2)C(=O)N[C@H]2c3ccccc3C[C@H]2O)C1` displayed an IC50 of more than 100 µM.

Molecule `CC(C)C[C@@H](C(=O)NC(C)(C)C)N1CCC[C@@](O)([C@H](Cc2ccccc2)NC(=O)OC(C)(C)C)C1` yielded an IC50 of more than 100 µM.

As to `CC(C)(C)NC(=O)[C@H](CC1CCCCC1)N1CCC[C@](O)([C@H](Cc2ccccc2)NC(=O)OC(C)(C)C)C1`, the IC50 is more than 100 µM.

`CC(C)(C)OC(=O)N[C@@H](Cc1ccccc1)C1(O)CCN([C@@H](Cc2ccccc2)C(=O)N[C@H]2c3ccccc3C[C@H]2O)CC1` had an IC50 of 1.46 µM.

The molecule `CC(C)(C)OC(=O)N[C@@H](Cc1ccccc1)[C@@]1(O)CCN([C@@H](Cc2ccccc2)C(=O)N[C@H]2c3ccccc3C[C@H]2O)C1` gave a concentration for half-maximal inhibition (IC50) of 6 µM.

For the molecule `CC(C)(C)OC(=O)N[C@@H](Cc1ccccc1)[C@]1(O)CCN([C@@H](Cc2ccccc2)C(=O)N[C@H]2c3ccccc3C[C@H]2O)C1`, the concentration for half-maximal inhibition (IC50) worked out at 0.6 µM.

In the case of `CC(C)C[C@@H](C(=O)NC(C)(C)C)N1CCC(O)([C@H](Cc2ccccc2)NC(=O)[C@@H](NC(=O)OCc2ccccc2)C(C)C)CC1`, the half-inhibitory concentration (IC50) came out at 26.7 µM.

Molecule `O=C(N[C@@H](Cc1ccccc1)C1(O)CCN([C@@H](Cc2ccccc2)C(=O)N[C@H]2c3ccccc3C[C@H]2O)CC1)O[C@H]1CCOC1` came in with an IC50 of 29.7 µM.

`CC(C)[C@H](NC(=O)OCc1ccccc1)C(=O)N[C@@H](Cc1ccccc1)C1(O)CCN(CCc2ccccc2)CC1` returned a half-maximal inhibitory concentration (IC50) of 38.7 µM.

Regarding `CC(C)(C)NC(=O)[C@H](CC1CCCCC1)N1CCC(O)([C@H](Cc2ccccc2)NC(=O)OC(C)(C)C)CC1`, the IC50 is more than 100 µM.
